Data published in PubChem BioAssay (NCI).
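All cell lines were grown in 96-well plates and treated with compound for 48 hours. TGI marks complete inhibition of growth.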

How the values were obtained:
Test in all cases: growth of human tumour cells (NCI), 48 h
[1] = tested on: UACC-257 melanoma
[2] = tested on: A549 NSCLC
[3] = tested on: M14 melanoma
[4] = tested on: A498 renal
[5] = tested on: RPMI-8226 leukemia
[6] = tested on: 786-0 renal
[7] = tested on: SK-MEL-28 melanoma
[8] = tested on: LXFL 529 NSCLC
[9] = tested on: SK-MEL-2 melanoma
[10] = tested on: EKVX NSCLC
[11] = tested on: MOLT-4 leukemia
[12] = tested on: K-562 leukemia
[13] = tested on: NCI-H226 lung
[14] = tested on: U251 CNS
[15] = tested on: SF-539 CNS
[16] = tested on: CAKI-1 renal
[17] = tested on: NCI-H23 lung
[18] = tested on: SN12C renal
[19] = tested on: DLD-1 colon
[20] = tested on: HT29 colon
[21] = tested on: TK-10 renal
[22] = tested on: SF-295 CNS
[23] = tested on: KM20L2 colon
[24] = tested on: SNB-19 CNS
[25] = tested on: OVCAR-3 ovarian
[26] = tested on: M19-MEL melanoma
[27] = tested on: MALME-3M melanoma
[28] = tested on: RXF 393 renal
[29] = tested on: HCT-116 colon
[30] = tested on: OVCAR-5 ovarian
[31] = tested on: SK-OV-3 ovarian
[32] = tested on: HCT-15 colon
[33] = tested on: SF-268 CNS
[34] = tested on: CCRF-CEM leukemia
[35] = tested on: SW-620 colon
[36] = tested on: OVCAR-8 ovarian
[37] = tested on: XF 498 CNS
[38] = tested on: DMS 273 small cell lung
[39] = tested on: OVCAR-4 ovarian
[40] = tested on: COLO 205 colon
[41] = tested on: UACC-62 melanoma
[42] = tested on: SNB-78 CNS
[43] = tested on: HOP-92 NSCLC
[44] = tested on: IGROV1 ovarian
[45] = tested on: KM12 colon
[46] = tested on: ACHN renal
[47] = tested on: SK-MEL-5 melanoma
[48] = tested on: DMS 114 small cell lung
[49] = tested on: HCC-2998 colon
[50] = tested on: SNB-75 CNS
[51] = tested on: HL-60(TB) leukemia
[52] = tested on: NCI-H460 lung
[53] = tested on: HOP-18 NSCLC
[54] = tested on: HOP-62 NSCLC

## O=[N+]([O-])c1ccc(C2=Nn3c(nnc3-c3ccccc3)SC2)o1
[1]
  TGI: 36.5 µM
[2]
  TGI: > 100 µM
[3]
  TGI: 32 µM
[4]
  TGI: > 100 µM
[5]
  TGI: > 100 µM
[6]
  TGI: 40.7 µM
[7]
  TGI: > 100 µM
[8]
  TGI: 29.9 µM
[9]
  TGI: 49 µM
[10]
  TGI: > 100 µM
[11]
  TGI: 70.8 µM
[12]
  TGI: > 100 µM
[13]
  TGI: > 100 µM
[14]
  TGI: 33.7 µM
[15]
  TGI: 39 µM
[16]
  TGI: 35 µM
[17]
  TGI: 42.8 µM
[18]
  TGI: 32.4 µM
[19]
  TGI: 30.2 µM
[20]
  TGI: 52.8 µM
[21]
  TGI: 34.5 µM
[22]
  TGI: 31.8 µM
[23]
  TGI: 53.5 µM
[24]
  TGI: > 100 µM
[25]
  TGI: 31.8 µM
[26]
  TGI: 41.1 µM
[27]
  TGI: 47.5 µM
[28]
  TGI: 53.5 µM
[29]
  TGI: 35.6 µM
[30]
  TGI: 65.8 µM
[31]
  TGI: > 100 µM
[32]
  TGI: 38.2 µM
[33]
  TGI: 42.8 µM
[34]
  TGI: 20.2 µM
[35]
  TGI: 40.5 µM
[36]
  TGI: 45.9 µM
[37]
  TGI: 38.9 µM
[38]
  TGI: 48.7 µM
[39]
  TGI: 41.5 µM
[40]
  TGI: 49.9 µM
[41]
  TGI: 36.3 µM
[42]
  TGI: 44.7 µM
[43]
  TGI: 34.1 µM
[44]
  TGI: 47.6 µM
[45]
  TGI: 42.4 µM
[46]
  TGI: 33.8 µM
[47]
  TGI: 32.6 µM
[48]
  TGI: 38.8 µM
[49]
  TGI: 35.7 µM
[50]
  TGI: 38.9 µM
[51]
  TGI: 37.8 µM
[52]
  TGI: 41.6 µM
[53]
  TGI: 34.8 µM
[54]
  TGI: > 100 µM
